From article PMC7587528
Entries after “also recorded” stand apart in the source; their conditions may differ. Read-outs that look alike come from different tables or passages of the source.

Assays:
apo-myoglobin = settings: in solution, ref [23], cited from earlier work
Source text: In solution, the bi-molecular association of the heme group to apo-myoglobin is thought to follow a bimodal process. Association of heme to (partially unfolded) apo-myoglobin is fast (kA ~10^8 M^−^1·s^−^1), followed by a slower structural re-arrangement (k ~500 s^−^1) to generate natively-folded holo-myoglobin (at pH 7) in which the iron atom of the heme group is then primarily coordinated by His93 [23]. Accordingly, in-solution affinity of at least partially unfolded apo-myoglobin to the heme prosthetic group has been characterized as rather strong and the complex consisting of both compone ...

[1] = tested on: antiTroponin I antibody [MF4]; assay: ITEM-TWO nanoESI-MS collision induced dissociation: Troponin I peptide-antiTroponin I antibody complex (gas phase); format: binding
Source text: At last, we performed ITEM-TWO experiments with an epitope peptide that was derived from human cardiac Troponin I (Tn I) against which was directed a monoclonal antiTroponin I antibody (antiTn I). Generation of the immune complex in solution and subsequent electrospraying of the entire mixture started data acquisition with the respective instrument settings as mentioned (for details see Methods section). […] Again, upon raising the collision cell voltage difference there appeared isotopically resolved ions in the low m/z range of the mass spectrum for the Troponin I epitope peptide (see insert in Figure 7) which were recorded with high mass accuracy (7 ppm).
Again, plotting norm (educts) vs. ΔCV produced a sigmoidal shaped course which represented the dependence of educt intensity on ΔCV following Boltzmann characteristics (Supplemental Figure S7). The y-axis values on the tangent line, i.e., norm (educts) , enabled to calculate ln kmg# values. […] This Arrhenius plot again provided lnA (pre-exponential factor) as the intercept with the y-axis and − ΔGmg#/R as the slope of the line (Supplemental Figure S8). In the same manner as described above, the value for km0g# was calculated. Similarly, by applying the Eyring-Polanyi equation KD m0g# was determined.
The human cardiac Troponin I epitope peptide (ENREVGDWRKNIDAL; peptides&elephants, Hennigsdorf, Germany) was obtained as lyophilized powder. The peptide was dissolved in 200 mM ammonium acetate buffer, pH 7, to obtain a peptide concentration of 1.31 µg/µL. The antiTroponin I antibody [MF4] (product code ab38210; Abcam, Cambridge, UK) was obtained dissolved in PBS buffer, pH 7.4. […] Then 200 mM ammonium acetate buffer, pH 7, were added to reach a volume of 500 µL. The solution was centrifuged at 13,000 rpm for 10 min. The filtrate was discarded. To the retentate on the filter (ca. 30 µL) 470 µL of 200 mM ammonium acetate buffer, pH 7, were added to reach a total volume of 500 µL. The solution was centrifuged again. This centrifugation/re-filling procedure was repeated eight times. After the last spinning, the filter unit was inverted into a new vial and was centrifuged at 4500 rpm for 5 min to collect the retentate (52 µL). Protein concentration was determined to be 0.33 µg/µL using the Qubit^TM 2.0 Fluorometer (Carlsbad, CA, USA) assay. […] The immune complex-containing mixture was incubated at room temperature for at least 1 h. For each measurement, 3 µL of antibody-peptide complex-containing solution were loaded into nanoESI capillaries using a microloader pipette tip (Eppendorf, Hamburg, Germany).
The m/z axis was calibrated using 1 mg/mL sodium iodide dissolved in an isopropanol/water solution (50:50, v/v). […]

holo-myoglobin = settings: gas phase, ref [19], cited from earlier work
Source text: In that investigation, heme dissociation kinetics was studied (i) by spraying solutions with pH 5 and (ii) by looking at selected charge state pairs (e.g., 8+ protonated holo-myoglobin and 7+ charged apo-myoglobin). Activation energies ranged from 73 kJ/mol to 106 ...

[2] = tested on: holo-myoglobin (apo-myoglobin—heme complex); assay: ITEM-TWO nanoESI-MS collision induced dissociation: heme loss from holo-myoglobin (gas phase); format: binding
Procedure: The mass spectral data obtained from electrospraying myoglobin (the holo-myoglobin complex consists of apo-myoglobin plus heme) were collected by following the ITEM-TWO protocol (see Methods section for in-solution handling and data acquisition steps). The ESI mass spectrum of myoglobin (Figure 4) provides an ion series of multiply charged ions from which a mean charge state of 8.1+ and an average mass of 17,566.95 ± 0.46 Da is calculated for holo-myoglobin. After having electrosprayed the myoglobin solution, and upon having switched on the collision gas and having increased the collision cell voltage difference ( ΔCV ) in a step-wise manner (5–20 V/step), dissociation of holo-myoglobin complexes caused appearance of complex-released heme ions (ligands) in the low mass ranges of the mass spectra (Supplemental Table S1). […] The m/z value of the ion that appeared in the low mass range ([heme]+) was 616.21 and corresponded precisely to the calculated values for singly protonated [heme]+ (m/z 616.18), resulting in a mass accuracy of 48 ppm.
Mean charge states of holo-myoglobin ions (m+), apo-myoglobin (n+) and heme (p+) as well as apex heights (holo-myoglobin ions (h, educts), heme ions (i, product), and apo-myoglobin ions (j, product) were extracted (Supplemental Table S2) from the triplicate measurements, averaged and normalized. For each ΔCV setting one spectrum was generated (Figure 4) and analyzed semi-quantitatively by determining Gaussian fits for all molecular/supra-molecular ion species.
All the y-values from the tangent line of the steep decline that fall within the 2dx interval around ΔCV50 are used for the calculation of ln kmg# values which are then used in the Arrhenius plot (Supplemental Figure S2). […] Then, ΔGm0g# is calculated using the van´t Hoff equation (Table 1).
A stock solution was first prepared by dissolving 5.22 mg of myoglobin (lot # 60K7007, Sigma-Aldrich, Steinheim, Germany) in 1 mL of 200 mM ammonium acetate. […] The concentration of the resulting solution was determined to be 0.5 µg/µL using a QubitTM 2.0 Fluorometer (Carlsbad, California, USA). […]

[3] = "neutral and resting" complex, gas phase, Arrhenius extrapolation to 298 K (ΔCV = 0)

C=CC1=C(C)c2cc3[n-]c(cc4[n-]c(cc5nc(cc1n2)C(C)=C5C=C)c(C)c4CCC(=O)O)c(CCC(=O)O)c3C.[Fe+2] [heme]
k of slower structural re-arrangement to natively-folded holo-myoglobin (apo-myoglobin; pH 7): ~ 500 s^−^1
kA association of heme to (partially unfolded) apo-myoglobin (apo-myoglobin): ~ 10^8 M^−^1·s^−^1

DYKDDDDK [FLAG]
km0g# apparent rate constant of dissociation (antiFLAG M2 antibody; [3]): 7.9 × 10 ^10 1/s
∆CV50 (antiFLAG M2 antibody; collision cell voltage difference at center of Boltzmann fit of normalized educt intensity, peptide to antibody 2.2:1, 200 mM ammonium acetate pH 7, three determinations): 89.0 V
dx (antiFLAG M2 antibody; half of x-axis interval (2dx) of steepest educt decline in Boltzmann fit, three determinations): 19.8 V
binding stoichiometry, peptides bound per antibody (antiFLAG M2 antibody; high mass range ion triplets, charge states 21+ to 27+, mixture of seven peptides, listed as FLAG peptide): one bound FLAG peptide; also recorded: two bound FLAG peptides
peptide released from antiFLAG antibody complex (epitope identification) (antiFLAG M2 antibody; mixture of seven peptides with antiFLAG antibody, 200 mM ammonium acetate pH 7, raised collision cell voltage): only released the FLAG peptide

ENREVGDWRKNIDAL [troponin I, peptides&elephants)]
km0g# apparent rate constant of dissociation [1, 3]: 2.2 × 10 ^12 1/s
∆CV50 ([1]; collision cell voltage difference at center of Boltzmann fit of normalized educt intensity, Synapt G2S, peptide to antibody 2.2:1, 200 mM ammonium acetate pH 7, two determinations): 26.4 V
dx ([1]; half of x-axis interval (2dx) of steepest educt decline in Boltzmann fit, Synapt G2S, two determinations): 15.9 V
binding stoichiometry, peptides bound per antibody ([1]; high mass range ion triplets, charge states 23+ to 28+, listed as Troponin I epitope peptide): one bound Troponin I epitope peptide; also recorded: two bound Troponin I epitope peptides

B1: myoglobin: holo-myoglobin complex consists of apo-myoglobin plus heme; lot # 60K7007, Sigma-Aldrich (protein, UniProt P68082 2-154, looked up)
Myoglobin: GLSDGEWQQVLNVWGKVEADIAGHGQEVLIRLFTGHPETLEKFDKFKHLKTEAEMKASEDLKKHGTVVLTALGGILKKKGHHEAELKPLAQSHATKHKIPIKYLEFISDAIIHVLHSKHPGDFGADAQGAMTKALELFRNDIAAKYKELGFQG
modifications: heme
notes: holo-myoglobin complex consists of apo-myoglobin plus heme; lot # 60K7007, Sigma-Aldrich
activation energy for heme dissociation (holo-myoglobin; 9+ protonated holo-myoglobin): 22 kcal/mol
activation energy for heme dissociation (holo-myoglobin; 10+ protonated holo-myoglobin): 20.3 kcal/mol
km0g# apparent rate constant of dissociation [2, 3]: 5.1 × 10 ^9 1/s
∆CV50 ([2]; collision cell voltage difference at center of Boltzmann fit of normalized educt intensity, Q-TOF 2, 200 mM ammonium acetate pH 7, triplicate): 44.0 V
dx ([2]; half of x-axis interval (2dx) of steepest educt decline in Boltzmann fit, Q-TOF 2, triplicate): 8.5 V
